Some test systems named below: HCT-116 colon; MOLT-4 leukemia; SF-295 CNS; OVCAR-3 ovarian; HL-60(TB) leukemia; SNB-75 CNS; EKVX NSCLC; MALME-3M melanoma; NCI-H23 lung.
Common to all, as to assay: NCI-60 cell line screen, 48 h

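Interpolation was linear, between the two tested concentrations surrounding the appropriate level; five concentrations were tested over 48 hours in 96-well plates. Definition used: TGI = concentration required for complete inhibition of growth.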 Bounds are passed on as bounds.

Regarding `O=C(O)/C(=C/C=C/c1ccccc1)c1csc(-c2nc(/C(=C\C=C\c3ccccc3)C(=O)O)cs2)n1`, the TGI was 40.8 µM with HCT-116 colon; 16.4 µM in the assay with MOLT-4 leukemia; 87.6 µM in the assay with SF-295 CNS; 57.5 µM in the assay with OVCAR-3 ovarian; 39.3 µM in the assay with HL-60(TB) leukemia; 98.7 µM in the assay on SNB-75 CNS. In addition, the TGI is greater than 100 µM in the assay with EKVX NSCLC and 60 µM with MALME-3M melanoma.

Consider `S=c1cc(S)sc2c1c(=S)sc1nc3ccccn3c(=S)c12`, for which the TGI was greater than 100 µM with HCT-116 colon; greater than 100 µM in the assay with MOLT-4 leukemia; greater than 100 µM in the assay with SF-295 CNS; greater than 100 µM in the assay on NCI-H23 lung; greater than 100 µM with OVCAR-3 ovarian; 97.3 µM in the assay on HL-60(TB) leukemia. Further, the TGI with SNB-75 CNS, with EKVX NSCLC and with MALME-3M melanoma was greater than 100 µM in each case.

Regarding `O=C(Cn1ccnc1[N+](=O)[O-])c1ccc(F)cc1`, the TGI with MOLT-4 leukemia, in the assay with SF-295 CNS, in the assay with NCI-H23 lung, in the assay with OVCAR-3 ovarian, with HL-60(TB) leukemia and in the assay with SNB-75 CNS was greater than 100 µM in each case. Moreover, the TGI in the assay on EKVX NSCLC and with MALME-3M melanoma was greater than 100 µM throughout.

As to `COC1OC(COCc2ccc(Cl)cc2)C(OCc2ccc(Cl)cc2)C1N=[N+]=[N-]` (configuration not stated), the TGI in the assay on HCT-116 colon, in the assay with MOLT-4 leukemia, in the assay on SF-295 CNS, in the assay on NCI-H23 lung, in the assay on OVCAR-3 ovarian and in the assay on SNB-75 CNS was greater than 100 µM in each case. Moreover, the TGI with EKVX NSCLC and in the assay on MALME-3M melanoma was greater than 100 µM throughout.

`C1=CC=C2NCCCNC3=CC=CC=CC3=NCCCN=C2C=C1`: the TGI in the assay on HCT-116 colon, in the assay on MOLT-4 leukemia, with SF-295 CNS, with OVCAR-3 ovarian, in the assay on HL-60(TB) leukemia and in the assay with SNB-75 CNS was greater than 100 µM each time. The TGI with EKVX NSCLC was greater than 100 µM.

As to `CC(C)(C)c1cc2c3c(c1)C(C(F)(F)F)(C(F)(F)F)O[Te]3(C)OC2(C(F)(F)F)C(F)(F)F`, the TGI with HCT-116 colon, with MOLT-4 leukemia, with SF-295 CNS, with NCI-H23 lung, with OVCAR-3 ovarian and with HL-60(TB) leukemia was greater than 100 µM throughout. The TGI in the assay with EKVX NSCLC and with MALME-3M melanoma was greater than 100 µM each time.

Take `CC(=O)OC(CCC1(C)OC1COc1ccc(CCNC(=O)c2ccccc2)cc1)C(C)(C)OC(C)=O` (configuration not stated): the TGI in the assay with HCT-116 colon was 45.5 µM; in the assay on MOLT-4 leukemia it was greater than 100 µM; in the assay with SF-295 CNS, greater than 100 µM; with NCI-H23 lung, 97.2 µM; with OVCAR-3 ovarian, 54.5 µM; with HL-60(TB) leukemia, greater than 100 µM. Further, the TGI in the assay on SNB-75 CNS is greater than 100 µM; in the assay with MALME-3M melanoma it was 80.1 µM.

For the compound `CC1(C)Cc2cc(C(=O)O)c3c(c2C1=O)COCC3`, the TGI with HCT-116 colon, with MOLT-4 leukemia, in the assay with SF-295 CNS, in the assay on NCI-H23 lung, with OVCAR-3 ovarian and with HL-60(TB) leukemia was greater than 100 µM throughout. Further, the TGI in the assay on SNB-75 CNS, in the assay on EKVX NSCLC and in the assay on MALME-3M melanoma was greater than 100 µM each time.

On to `O=CC[C@H]1CCc2ccccc2C12CCC(=O)CC2`, for which the TGI is greater than 100 µM with HCT-116 colon; greater than 100 µM in the assay on MOLT-4 leukemia; greater than 100 µM in the assay on SF-295 CNS; greater than 100 µM in the assay with OVCAR-3 ovarian; 65.8 µM with HL-60(TB) leukemia; greater than 100 µM with SNB-75 CNS. Also, the TGI with MALME-3M melanoma was greater than 100 µM.

In the case of `CCc1cccc(C(C)C)c1NC(=O)C(=O)C(CC(=O)Nc1ccc(Cl)c(Cl)c1)C(=O)OC` (configuration not stated), the TGI in the assay on HCT-116 colon, with MOLT-4 leukemia, in the assay on SF-295 CNS, in the assay with NCI-H23 lung, in the assay with OVCAR-3 ovarian and in the assay on HL-60(TB) leukemia was greater than 100 µM in each case. Besides, the TGI with SNB-75 CNS, in the assay on EKVX NSCLC and with MALME-3M melanoma was greater than 100 µM in each case.

`Cc1cc(C)nc(NS(=O)(=O)c2ccc(Nc3c4ccc(Cl)cc4nc4c(C(=O)Nc5ccc(S(N)(=O)=O)cc5)cccc34)cc2)n1`: the TGI with HCT-116 colon is 30.2 µM; with MOLT-4 leukemia it was 39.7 µM; in the assay with SF-295 CNS it was 36.9 µM; with NCI-H23 lung it was 43 µM; in the assay on OVCAR-3 ovarian, 30.2 µM; with SNB-75 CNS, greater than 100 µM. The TGI with EKVX NSCLC was 48.8 µM; in the assay on MALME-3M melanoma, greater than 100 µM.

With `CN(C)CCNC(=O)c1cccc2c1nc(-c1ccccc1)c1ccccc12`, the TGI in the assay with HCT-116 colon is 13 µM; in the assay with MOLT-4 leukemia, 2.16 µM; in the assay on SF-295 CNS, 18.7 µM; with NCI-H23 lung, 20.1 µM; in the assay with OVCAR-3 ovarian it was 20.7 µM; in the assay with HL-60(TB) leukemia, 8 µM. For the same compound, the values for the TGI with SNB-75 CNS and with EKVX NSCLC were 19.9 µM and 25.7 µM, respectively.

Take `CCc1cccc(C(C)C)c1N1C(=O)C(=O)C(c2nc3ccccc3s2)C(=O)C1=O`: the TGI in the assay with HCT-116 colon was greater than 50 µM; in the assay with MOLT-4 leukemia it was 42.7 µM; in the assay on SF-295 CNS, greater than 50 µM; with NCI-H23 lung it was greater than 50 µM; in the assay on OVCAR-3 ovarian it was greater than 43.1 µM; with HL-60(TB) leukemia, 30.9 µM. The TGI in the assay on SNB-75 CNS was greater than 50 µM; in the assay on EKVX NSCLC, greater than 50 µM; in the assay on MALME-3M melanoma, greater than 45.3 µM.

On to `Clc1ccc(C2SCc3nc4ccccc4n32)cc1Cl` (configuration not stated), for which the TGI with HCT-116 colon is 26.2 µM; with MOLT-4 leukemia, greater than 100 µM; in the assay with SF-295 CNS, 24.2 µM; with NCI-H23 lung it was 27.5 µM; in the assay on OVCAR-3 ovarian, 22.5 µM; in the assay on HL-60(TB) leukemia, 40.7 µM. The TGI with SNB-75 CNS turned out to be 14.3 µM; with EKVX NSCLC, 28.1 µM; with MALME-3M melanoma it was 42.5 µM.

For the compound `CC1C[C@@H]2C(=O)NC(=O)[C@@H]2c2c1c1ccccc1n2C` (some centres not stated), the TGI with MOLT-4 leukemia, in the assay on SF-295 CNS, in the assay with NCI-H23 lung, with OVCAR-3 ovarian, in the assay on HL-60(TB) leukemia and in the assay with SNB-75 CNS was greater than 100 µM in each case. In addition, the TGI in the assay on EKVX NSCLC and with MALME-3M melanoma was greater than 100 µM in each case.

For the compound `C=C(Br)N(CC)CC`, the TGI in the assay on HCT-116 colon, in the assay on MOLT-4 leukemia, with SF-295 CNS, in the assay on NCI-H23 lung, in the assay with OVCAR-3 ovarian and with HL-60(TB) leukemia was greater than 100 µM throughout. The TGI with SNB-75 CNS, in the assay with EKVX NSCLC and in the assay with MALME-3M melanoma was greater than 100 µM throughout.

(Values after PubChem BioAssay (NCI).)
